Source: paper PMC10958125 (Clinical and Translational Medicine, 2024)
Where two headings read alike, the source gives them in different places.

How the values were obtained:
[1] = system: metastatic prostate cancer patients; set-up: method as in PMID 28753384; conditions: FIRSTANA trial, cited from earlier work
[2] = clinical; conditions: human, in vivo, iv, 75 mg/m2
[3] = human, in vivo
[4] = system: metastatic prostate cancer patients; set-up: method as in PMID 15470213; conditions: TAX327 trial, cited from earlier work
[5] = system: metastatic prostate cancer patients; conditions: cited from earlier work
[6] = target: IGF‐1R (Homo sapiens, UniProt P08069); assay: Ligand-dependent phosphorylation of IGF-1R(Y1131) in PBMCs stimulated ex vivo with rhIGF-1; conditions: patients
Chain of IGF‐1R (P08069 31-1367): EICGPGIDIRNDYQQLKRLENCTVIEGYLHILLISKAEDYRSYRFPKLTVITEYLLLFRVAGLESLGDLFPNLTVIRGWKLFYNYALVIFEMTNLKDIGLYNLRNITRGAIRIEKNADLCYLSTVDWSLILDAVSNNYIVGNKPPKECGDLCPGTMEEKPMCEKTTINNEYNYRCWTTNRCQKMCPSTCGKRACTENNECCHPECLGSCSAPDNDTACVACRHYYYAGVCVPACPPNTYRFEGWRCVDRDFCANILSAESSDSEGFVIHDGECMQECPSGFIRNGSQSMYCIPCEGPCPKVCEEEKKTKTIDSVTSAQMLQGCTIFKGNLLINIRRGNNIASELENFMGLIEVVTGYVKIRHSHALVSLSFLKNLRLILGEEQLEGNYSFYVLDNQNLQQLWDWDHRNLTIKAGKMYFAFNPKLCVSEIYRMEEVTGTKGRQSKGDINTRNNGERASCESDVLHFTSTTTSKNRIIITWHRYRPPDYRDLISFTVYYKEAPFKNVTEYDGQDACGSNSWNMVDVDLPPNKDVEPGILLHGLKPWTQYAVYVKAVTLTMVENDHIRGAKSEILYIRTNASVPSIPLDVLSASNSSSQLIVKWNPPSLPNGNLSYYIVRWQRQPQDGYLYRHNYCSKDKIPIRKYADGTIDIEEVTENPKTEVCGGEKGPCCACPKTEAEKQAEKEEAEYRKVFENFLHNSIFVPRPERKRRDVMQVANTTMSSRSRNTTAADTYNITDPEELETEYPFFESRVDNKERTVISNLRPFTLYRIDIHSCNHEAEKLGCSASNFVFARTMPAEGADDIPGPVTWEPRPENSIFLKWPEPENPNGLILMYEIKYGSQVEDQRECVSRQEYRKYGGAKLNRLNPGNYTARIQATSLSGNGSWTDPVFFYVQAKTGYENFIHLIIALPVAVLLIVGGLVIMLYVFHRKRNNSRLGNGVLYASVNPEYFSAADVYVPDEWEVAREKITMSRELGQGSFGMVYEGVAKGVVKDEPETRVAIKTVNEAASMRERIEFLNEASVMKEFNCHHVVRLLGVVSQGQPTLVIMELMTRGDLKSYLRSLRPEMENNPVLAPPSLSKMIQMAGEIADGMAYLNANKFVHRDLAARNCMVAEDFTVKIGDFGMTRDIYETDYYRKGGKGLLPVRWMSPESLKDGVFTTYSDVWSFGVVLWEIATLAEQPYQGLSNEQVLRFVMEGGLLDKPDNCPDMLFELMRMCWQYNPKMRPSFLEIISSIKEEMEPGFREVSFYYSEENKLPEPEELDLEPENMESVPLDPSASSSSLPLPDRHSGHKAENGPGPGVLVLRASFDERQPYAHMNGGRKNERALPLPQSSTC
Source text: Briefly, ligand‐dependent phosphorylation of the IGF‐1R was estimated using an ex vivo assay that utilised peripheral blood mononuclear cells (PBMCs). […] The cells were then lysed, and the quantity of phosphoIGF‐1R(Y1131) was estimated by an ELISA assay (Cell Signalling Technologies). Ligand‐dependent phosphorylation was defined as the ratio of pIGF‐1R(Y1131) in ligand‐stimulated PBMCs to the same parameter for unstimulated PBMCs. […] Thus, the changes in the level of ligand‐dependent phosphorylation over time were analysed by both parametric and non‐parametric methods.
Measurement of IGF-1R (Y1131) phosphorylation in PBMNCs after ex vivo ligand treatment. […] The primary analyte was phosphorylation of the IGF-1R on Y1131, measured by ELISA on lysates of PBMCs treated (or not) with recombinant human IGF-1.
Whole blood (10mL) is collected into an ACD (acid citrate-dextrose) Vacutainer®. Peripheral blood mononuclear cells are collected by density gradient centrifugation using LSM Lymphoprep® and an Accuspin® 50mL tube (Sigma). The mononuclear cells are collected, washed x 2 with serum-free RPMI1640 medium, then resuspended in 1mL of RPMI 1640 medium + 0.1% BSA. Cells are then aliquoted into 1mL microcentrifuge tubes, 0.5mL of cells per tube per condition.
Cells are incubated for 1-2hr at 37C, then rhIGF-1 (Peprotech) is added to 50-500ng/mL final concentration. Incubation continues for 15min at 37C.
Cells are then pelleted and washed with 1mL of cold RPMI 1640 medium (no protein).
The cell pellet is lysed with 120mcL of Cell Signalling® ELISA buffer containing phosphatase inhibitors and protease inhibitors. The lysate can be stored at -80C or assayed immediately.
For total protein measurement follow the BCA method (BioRad).
For IGF-1R(Y1131) ELISA (Cell Signalling® #7302) proceed per kit instructions. […]
The standard will be used as a series of 2-fold dilutions, being diluted with assay buffer from the ELISA kit. […] Results will be expressed as X units of pIGF-1R protein per amount of protein in the lysate. The protein is measured by the BCA method, as mcg/mL.

[7] = system: Circulating endothelial cells (CECs); assay: Circulating endothelial cells, flow cytometry; type: in vivo, human
Procedure: (§1) Vascular endothelial growth factor A (VEGF‐A) was measured on Ethylenediaminetetraacetic acid plasma from subjects 1−12 of the dose escalation cohort, with a commercial sandwich ELISA kit (R&D Systems). Circulating endothelial cells (CECs) were measured with an 11‐colour flow cytometry scheme using a method adopted from a previously published protocol.[36] The definition for CECs was viable cells (alive, intact nucleus) that were positive for surface CD31 and CD34, and that were negative for haematopoietic marker CD45. Additional exploratory markers were CD105 and CD146. […] Samples were collected before the scheduled docetaxel dose for that day.
(§2) Both VEGF‐A and CEC levels were analysed using linear mixed‐effects regression models with a subject‐level random effect included to account for within‐subject correlation. Models were adjusted for the individual's baseline levels in both outcomes. All analyses and hypothesis testing were completed on the log scale and back transformed to estimate fold changes. Analysis was completed in the R environment,[37] with all tests level α = .05. The VEGF‐A levels were near‐linear over time, so time was treated as continuous, and slopes between groups were compared using Wald tests. Levels of CECs were non‐linear over time; therefore, time was treated as a fixed factor in the CEC model, with a time‐by‐dose interaction effect. Pairwise tests of differences between the CEC model‐based estimated means at each time point after zero were completed using the emmeans package.[38] As these analyses are exploratory/hypothesis generating, no multiple comparison adjustments have been made. Simple Bonferroni adjustments would lead to p‐value cutoffs of .01 (five comparisons) and .0033 (15 comparisons) for the VEGF‐A and CEC analyses, respectively.

[8] = system: metastatic prostate cancer patients
[9] = Plasma lycopene levels (HPLC); type: in vivo, human
[10] = system: Vascular endothelial growth factor A (VEGF‐A); assay: Plasma VEGF-A, sandwich ELISA; type: in vivo, human
Procedure: as §1, §2

[11] = system: Insulin‐like growth factor binding protein 3 (IGFBP‐3); assay: Plasma IGFBP-3, sandwich ELISA; type: in vivo, human; conditions: all lycopene doses, any time point
Procedure: Insulin‐like growth factor binding protein 3 (IGFBP‐3) levels were measured in duplicate by sandwich ELISA assays using kits from eBioscience in subjects 1–12 of the dose escalation cohort.

[12] = system: metastatic prostate cancer patients; type: in vivo; conditions: lycopene alone for 2 weeks from day 1, dose escalation cohort

## CC(=O)O[C@@]12CO[C@@H]1C[C@H](O)[C@@]1(C)C(=O)[C@H](O)C3=C(C)[C@@H](OC(=O)[C@H](O)[C@@H](NC(=O)OC(C)(C)C)c4ccccc4)C[C@@](O)([C@@H](OC(=O)c4ccccc4)[C@H]21)C3(C)C [docetaxel]
[1]; any grade
  Alopecia, % any: 39%
  Anaemia, % any: 99.5%
  Anorexia, % any: 17.1%
  Arthralgia, % any: 8%
  Constipation, % any: 18.1%
  Cough, % any: 9.8%
  Diarrhoea, % any: 37%
  Dysgeusia, % any: 18.1%
  Dyspnoea, % any: 9.6%
  Fatigue, % any: 28.9%
  Febrile neutropenia, % any: 8.3%
  Infection, % any: 7.2%
  Nail changes, % any: 9%
  Nausea, % any: 22.7%
  Neutropenia, % any: 89%
  Pain in extremity, % any: 9.8%
  Peripheral oedema, % any: 20.4%
  Rash/desquamation, % any: 5.9%
  Sensory/motor neuropathy, % any: 25.1%
  Stomatitis/pharyngitis, % any: 13.7%
  Tearing, % any: 9.6%
  Thrombocytopenia, % any: 32.6%
  Vomiting, % any: 11.6%
[1]
  Anaemia, % grade 3+: 5.5%
  Anorexia, % grade 3+: .3%
  Arthralgia, % grade 3+: 1%
  Constipation, % grade 3+: 1%
  Cough, % grade 3+: 0%
  Diarrhoea, % grade 3+: 2.3%
  Dysgeusia, % grade 3+: 0%
  Dyspnoea, % grade 3+: .3%
  Fatigue, % grade 3+: .3%
  Febrile neutropenia, % grade 3+: 8.3%
  Infection, % grade 3+: 4.1%
  Nausea, % grade 3+: .8%
  Neutropenia, % grade 3+: 78.9%
  Pain in extremity, % grade 3+: 1%
  Peripheral oedema, % grade 3+: 1.6%
  Sensory/motor neuropathy, % grade 3+: 2.1%
  Stomatitis/pharyngitis, % grade 3+: .8%
  Tearing, % grade 3+: 0%
  Thrombocytopenia, % grade 3+: 1.6%
  Vomiting, % grade 3+: .8%
[2]
  AUC(0-inf): 3020 ng·h/mL
[3]
  Plasma docetaxel C max, geometric mean: 2810 ng/mL
[3]; iv, 75 mg/m2
  Plasma docetaxel AUClast, geometric mean: 2810 ng·h/mL
[4]; any grade
  Alopecia, % any: 65.1%
  Anaemia, % any: 66.5%
  Anorexia, % any: 16.6%
  Arthralgia, % any: 8.1%
  Cough, % any: 12.3%
  Diarrhoea, % any: 31.6%
  Dysgeusia, % any: 18.4%
  Dyspnoea, % any: 15.1%
  Fatigue, % any: 53.3%
  Febrile neutropenia, % any: 2.7%
  Infection, % any: 32.2%
  Nail changes, % any: 29.5%
  Nausea, % any: 41%
  Neutropenia, % any: 40.9%
  Peripheral oedema, % any: 18.1%
  Rash/desquamation, % any: 6%
  Sensory/motor neuropathy, % any: 30.4%
  Stomatitis/pharyngitis, % any: 19.6%
  Tearing, % any: 9.9%
  Thrombocytopenia, % any: 3.4%
  Vomiting, % any: 16.9%
[4]
  Anaemia, % grade 3+: 4.9%
  Anorexia, % grade 3+: 1.2%
  Arthralgia, % grade 3+: .6%
  Cough, % grade 3+: 0%
  Diarrhoea, % grade 3+: 2.1%
  Dysgeusia, % grade 3+: 0%
  Dyspnoea, % grade 3+: 2.7%
  Fatigue, % grade 3+: 4.5%
  Febrile neutropenia, % grade 3+: 2.7%
  Infection, % grade 3+: 5.7%
  Nausea, % grade 3+: 2.7%
  Neutropenia, % grade 3+: 32%
  Peripheral oedema, % grade 3+: .3%
  Sensory/motor neuropathy, % grade 3+: 1.8%
  Stomatitis/pharyngitis, % grade 3+: .9%
  Tearing, % grade 3+: .6%
  Thrombocytopenia, % grade 3+: .6%
  Vomiting, % grade 3+: 1.5%
[5]; mCRPC
  Increased overall survival: 2.4 months
[5]; mCSPC
  Increased overall survival: 16.8 months

## CC(C)=CCC/C(C)=C/C=C/C(C)=C/C=C/C(C)=C/C=C/C=C(C)/C=C/C=C(C)/C=C/C=C(\C)CCC=C(C)C [lycopene]
[6]; 150 mg lycopene daily, day 78, p = .048
  Change of ligand-dependent phosphorylation of IGF1-R(Y1131): borderline decrease
[6]; 150 mg lycopene daily, day 99, p = .027
  Change of ligand-dependent phosphorylation of IGF1-R(Y1131): significant decrease
[6]; 30 or 90 mg/day lycopene, day 15 to 99
  Change of ligand-dependent phosphorylation of IGF1-R(Y1131): did not show a consistent change
[7]; lycopene 30 mg/day + docetaxel/ADT, all time points
  Change of CEC number vs pre-treatment: decreased
[7]; lycopene 90 mg daily + docetaxel/ADT
  Change of CEC number vs pre-treatment: increased CEC levels at all time points
[7]; lycopene 150 mg daily + docetaxel/ADT
  Change of CEC number vs pre-treatment: significant increase in CECs only on day 57
[8]; in combination with docetaxel 75 mg/m^2 and ADT
  Maximum tolerated dose (MTD) of synthetic lycopene: 150 mg/day
[8]; in vivo
  Dose-limiting toxicity: No DLT
[8]; male, human, in vivo
  Probability of toxicity, dose level 1: 0
  Probability of toxicity, dose level 2: .009
  Probability of toxicity, dose level 3: .106
[9]; 30 mg daily synthetic lycopene with docetaxel
  Increase of plasma lycopene concentration from baseline: approximately 1.6 fold
[9]; Figure 2B
  Peak concentration of lycopene in plasma at 150 mg/day compared to 30 and 90 mg/day: did not further increase the peak concentration
[9]; after 99 days of treatment
  Mean lycopene concentration in plasma: .82 ± .49 µmol/L
[9]; baseline
  Mean lycopene concentration in plasma: .48 ± .37 µmol/L
[9]; baseline to 99 days
  Increase of plasma lycopene during treatment: 93.4%
[10]; lycopene 30 mg/day + docetaxel/ADT
  Change of plasma VEGF-A level over time: tended to decrease
[10]; lycopene 90 mg/day + docetaxel/ADT
  Change of plasma VEGF-A level over time: little change
[10]; lycopene 150 mg/day + docetaxel/ADT
  Change of plasma VEGF-A level over time: to increase
[11]
  Change of plasma IGFBP-3 from pretreatment level: no statistically significant differences
[12]
  Adverse events during lycopene alone lead-in: No participant reported any adverse event
